According to patent EP1181935A2, “Agent for treating mental disorders associated with cerebrovascular disorders” (SUMITOMO PHARMACEUTICALS COMPANY, LIMITED, priority 1995, dated 1996):
Structures can show the parent of a compound that is named as a salt.

System: patients with cerebral infarction or hemorrhage accompanied by various mental disorders
Assay: Clinical trial of SM-9018 for mental disorders associated with cerebrovascular disorders
Format: in vivo
Conditions: 8 weeks
Description: Examination 1 Clinical trial of SM-9018 for mental disorders associated with cerebrovascular disorders.
SM-9018 was administered to patients with cerebral infarction or hemorrhage accompanied by various mental disorders described above to examine whether the mental disorders will be improved or not.
One mg/dosage of SM-9018 was orally administered once (Step I), twice (Step II) or 3 times a day (Step III) for up to 2 weeks after the administration was started and, when the treatment was effective, administration thereof was continued.
[2] Administration periods: 8 weeks
Improvement of the mental disorders was evaluated by categorizing into 4 grades: i.e. 1) "excellent", 2) "moderate", 3) "slight", or 4) "unchanged" or other. Among the results obtained, "the number of patients categorized to 1) + 2) divided by the number of patients tested" for each symptom is summarized in the following Tables 1 to 3.

[1] = Step I: 1 mg orally once a day (increased to 1 mg x 2 times/day if no effect)
[2] = Step I: 1 mg orally once a day (increased to 1 mg x 2 times/day if no effect), 35 patients examined
[3] = Step II: 1 mg orally twice a day (increased to 2 mg x 2 times/day if no effect)
[4] = Step II: 1 mg orally twice a day (increased to 2 mg x 2 times/day if no effect), 28 patients examined
[5] = Step III: 1 mg orally 3 times a day (increased to 2 mg x 3 times/day if no effect)
[6] = Step III: 1 mg orally 3 times a day (increased to 2 mg x 3 times/day if no effect), 20 patients examined

## O=C1[C@H]2CCCC[C@H]2C(=O)N1CCCCN1CCN(c2nsc3ccccc23)CC1 [SM-9018, N-[4-[4-(1,2-benzisothiazol-3-yl)-1-piperazinyl]butyl]-1,2-cis-cyclohexandicarboxyimide hydrochloride]
[1]
  Aggressive behavior: number of patients categorized to 1) + 2) divided by the number of patients tested: 2/7
  Anxiety: number of patients categorized to 1) + 2) divided by the number of patients tested: 3/22
  Bad humor: number of patients categorized to 1) + 2) divided by the number of patients tested: 4/18
  Delirium: number of patients categorized to 1) + 2) divided by the number of patients tested: 1/4
  Depressive mood: number of patients categorized to 1) + 2) divided by the number of patients tested: 4/25
  Emotional incontinence: number of patients categorized to 1) + 2) divided by the number of patients tested: 2/13
  Emotional tension: number of patients categorized to 1) + 2) divided by the number of patients tested: 2/18
  Fugue: number of patients categorized to 1) + 2) divided by the number of patients tested: 1/6
  Irritability: number of patients categorized to 1) + 2) divided by the number of patients tested: 4/25
  Mental excitement: number of patients categorized to 1) + 2) divided by the number of patients tested: 2/14
  Reduced expression of desires: number of patients categorized to 1) + 2) divided by the number of patients tested: 3/29
  Reduced initiative in activities: number of patients categorized to 1) + 2) divided by the number of patients tested: 3/30
  Reduced interest in housework, amusement, pastime and the like: number of patients categorized to 1) + 2) divided by the number of patients tested: 4/31
  Reduced positiveness to an influence: number of patients categorized to 1) + 2) divided by the number of patients tested: 5/30
  Total emotional disorders: number of patients categorized to 1) + 2) divided by the number of patients tested: 8/33
  Total loss of spontaneity: number of patients categorized to 1) + 2) divided by the number of patients tested: 4/32
  Total problem behavior: number of patients categorized to 1) + 2) divided by the number of patients tested: 2/18
  patients with some improvement of mental disorders, including those judged as "slight" (global evaluation): about 77%
[2]
  Final global improvement rating: Excellent (number of patients): 2
  Final global improvement rating: Moderate (number of patients): 5
  Final global improvement rating: Slight (number of patients): 20
[3]
  Aggressive behavior: number of patients categorized to 1) + 2) divided by the number of patients tested: 3/4
  Anxiety: number of patients categorized to 1) + 2) divided by the number of patients tested: 4/23
  Bad humor: number of patients categorized to 1) + 2) divided by the number of patients tested: 9/21
  Delirium: number of patients categorized to 1) + 2) divided by the number of patients tested: 2/5
  Depressive mood: number of patients categorized to 1) + 2) divided by the number of patients tested: 8/23
  Emotional incontinence: number of patients categorized to 1) + 2) divided by the number of patients tested: 3/13
  Emotional tension: number of patients categorized to 1) + 2) divided by the number of patients tested: 3/18
  Fugue: number of patients categorized to 1) + 2) divided by the number of patients tested: 1/3
  Irritability: number of patients categorized to 1) + 2) divided by the number of patients tested: 5/19
  Mental excitement: number of patients categorized to 1) + 2) divided by the number of patients tested: 4/10
  Reduced expression of desires: number of patients categorized to 1) + 2) divided by the number of patients tested: 5/23
  Reduced initiative in activities: number of patients categorized to 1) + 2) divided by the number of patients tested: 5/26
  Reduced interest in housework, amusement, pastime and the like: number of patients categorized to 1) + 2) divided by the number of patients tested: 6/27
  Reduced positiveness to an influence: number of patients categorized to 1) + 2) divided by the number of patients tested: 6/23
  Total emotional disorders: number of patients categorized to 1) + 2) divided by the number of patients tested: 11/28
  Total loss of spontaneity: number of patients categorized to 1) + 2) divided by the number of patients tested: 8/27
  Total problem behavior: number of patients categorized to 1) + 2) divided by the number of patients tested: 5/10
  patients with some improvement of mental disorders, including those judged as "slight" (global evaluation): about 75%
[4]
  Final global improvement rating: Excellent (number of patients): 3
  Final global improvement rating: Moderate (number of patients): 10
  Final global improvement rating: Slight (number of patients): 8
[5]
  Aggressive behavior: number of patients categorized to 1) + 2) divided by the number of patients tested: 2/5
  Anxiety: number of patients categorized to 1) + 2) divided by the number of patients tested: 6/19
  Bad humor: number of patients categorized to 1) + 2) divided by the number of patients tested: 6/16
  Delirium: number of patients categorized to 1) + 2) divided by the number of patients tested: 1/4
  Depressive mood: number of patients categorized to 1) + 2) divided by the number of patients tested: 6/18
  Emotional incontinence: number of patients categorized to 1) + 2) divided by the number of patients tested: 2/10
  Emotional tension: number of patients categorized to 1) + 2) divided by the number of patients tested: 5/15
  Fugue: number of patients categorized to 1) + 2) divided by the number of patients tested: 0/3
  Irritability: number of patients categorized to 1) + 2) divided by the number of patients tested: 5/16
  Mental excitement: number of patients categorized to 1) + 2) divided by the number of patients tested: 3/8
  Reduced expression of desires: number of patients categorized to 1) + 2) divided by the number of patients tested: 3/16
  Reduced initiative in activities: number of patients categorized to 1) + 2) divided by the number of patients tested: 6/17
  Reduced interest in housework, amusement, pastime and the like: number of patients categorized to 1) + 2) divided by the number of patients tested: 8/16
  Reduced positiveness to an influence: number of patients categorized to 1) + 2) divided by the number of patients tested: 3/17
  Total emotional disorders: number of patients categorized to 1) + 2) divided by the number of patients tested: 10/20
  Total loss of spontaneity: number of patients categorized to 1) + 2) divided by the number of patients tested: 9/18
  Total problem behavior: number of patients categorized to 1) + 2) divided by the number of patients tested: 3/10
  patients with some improvement of mental disorders, including those judged as "slight" (global evaluation): about 80%
[6]
  Final global improvement rating: Excellent (number of patients): 6
  Final global improvement rating: Moderate (number of patients): 7
  Final global improvement rating: Slight (number of patients): 3
